What all share (assay type): cell-based
Details in all cases: fluorescent calcium assay

One assay has as its target TRPML1 (Homo sapiens, UniProt Q9GZU1). The assay can be described thus: Fluorescent TRPML1 assay (Fluo4-AM calcium fluorescence in doxycycline-induced HEK-293 Trex cells). The essentials: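 hTRPML1 (mutated for cell-surface expression) in HEK-293 Trex, dox 0.5 ug/mL o/n; Fluo4-AM 1 uM ~60 min, then ~60 min de-esterification, dark; modified Ringer's + 10 mM Ca. Cmpds 20 uM–6 nM final, half-log, n=3. Ex480/Em540; % activity vs ctrls; EC50 by nonlinear regression.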

In the next assay the target is T1, TRPML3 (Homo sapiens, UniProt Q8TDD5).
T1 construct: expressed in transfected cells
T1 sequence (Q8TDD5 1-553): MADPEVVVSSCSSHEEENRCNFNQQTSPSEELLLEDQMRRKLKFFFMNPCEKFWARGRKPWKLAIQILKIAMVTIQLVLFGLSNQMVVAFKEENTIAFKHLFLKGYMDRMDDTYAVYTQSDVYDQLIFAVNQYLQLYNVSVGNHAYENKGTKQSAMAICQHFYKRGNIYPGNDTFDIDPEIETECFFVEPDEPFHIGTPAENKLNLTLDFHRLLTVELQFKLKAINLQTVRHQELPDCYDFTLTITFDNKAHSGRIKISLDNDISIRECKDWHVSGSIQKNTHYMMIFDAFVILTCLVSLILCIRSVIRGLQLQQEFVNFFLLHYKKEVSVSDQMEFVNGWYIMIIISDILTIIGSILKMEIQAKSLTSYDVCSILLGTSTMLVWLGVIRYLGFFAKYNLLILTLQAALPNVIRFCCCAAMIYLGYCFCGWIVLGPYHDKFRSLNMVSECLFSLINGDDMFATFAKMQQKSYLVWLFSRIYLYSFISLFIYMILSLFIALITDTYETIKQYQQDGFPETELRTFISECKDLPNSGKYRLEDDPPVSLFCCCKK
Kind of assay: Fluorescent TRPML3 assay (performed as for TRPML1, substituting the TRPML3 subtype). The method, boiled down: (§1)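 HEK-293 Trex, dox-induced (0.5 ug/mL), mutated for surface expression. Fluo4-AM 1 micromolar load ~60 min, dark; buffer modified Ringer's, 10 mM Ca. Cpds 20 micromolar–6 nanomolar final, half-log, n=3. Read ex 480/em 540; % activity vs controls; EC50 nonlinear fit.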

In the next assay the target is T2, TRPML2 (Homo sapiens, UniProt Q8IZK6).
T2 construct: expressed in transfected cells
T2 sequence (Q8IZK6 1-566): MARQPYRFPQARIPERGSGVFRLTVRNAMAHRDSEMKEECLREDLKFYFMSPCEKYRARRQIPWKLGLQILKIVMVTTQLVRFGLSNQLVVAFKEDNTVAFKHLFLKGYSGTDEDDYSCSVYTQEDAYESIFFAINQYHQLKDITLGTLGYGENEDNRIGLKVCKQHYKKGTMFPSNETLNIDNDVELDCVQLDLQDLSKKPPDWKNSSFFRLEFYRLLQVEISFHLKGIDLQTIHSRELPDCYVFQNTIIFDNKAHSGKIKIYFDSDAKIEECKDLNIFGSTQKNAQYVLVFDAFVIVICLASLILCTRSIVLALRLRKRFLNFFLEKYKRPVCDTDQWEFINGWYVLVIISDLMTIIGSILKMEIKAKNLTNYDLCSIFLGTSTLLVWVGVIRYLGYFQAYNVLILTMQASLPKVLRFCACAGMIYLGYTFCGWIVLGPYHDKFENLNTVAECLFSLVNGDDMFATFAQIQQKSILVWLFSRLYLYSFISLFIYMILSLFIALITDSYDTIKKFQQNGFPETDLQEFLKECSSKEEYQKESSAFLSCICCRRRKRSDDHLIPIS
The assay can be described thus: Fluorescent TRPML2 assay (performed as for TRPML1, substituting the TRPML2 subtype). The essentials: as §1

Sequence of TRPML1 (Q9GZU1 whole entry L15A/L16A/L577A/L578A, form open): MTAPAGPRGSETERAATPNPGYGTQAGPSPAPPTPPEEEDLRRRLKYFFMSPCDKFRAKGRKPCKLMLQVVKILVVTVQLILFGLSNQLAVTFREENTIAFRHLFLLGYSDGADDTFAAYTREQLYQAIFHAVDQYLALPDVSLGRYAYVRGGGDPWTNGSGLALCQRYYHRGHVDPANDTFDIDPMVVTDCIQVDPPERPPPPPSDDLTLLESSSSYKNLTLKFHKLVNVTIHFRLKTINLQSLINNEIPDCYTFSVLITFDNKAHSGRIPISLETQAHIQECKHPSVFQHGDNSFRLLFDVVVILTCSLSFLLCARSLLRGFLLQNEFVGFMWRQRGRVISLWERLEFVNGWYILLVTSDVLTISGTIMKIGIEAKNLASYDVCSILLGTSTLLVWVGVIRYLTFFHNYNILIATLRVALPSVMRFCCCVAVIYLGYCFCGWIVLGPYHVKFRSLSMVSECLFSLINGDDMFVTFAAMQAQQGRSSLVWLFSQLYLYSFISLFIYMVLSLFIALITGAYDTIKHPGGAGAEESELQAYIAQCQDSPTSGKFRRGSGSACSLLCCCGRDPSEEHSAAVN

A word on the EC50: it is the concentration at which the effect is half-maximal. For `Cc1cncc(-n2cc(C3CC3)c3c(N4CCN(C(=O)OC(C)(C)C)C[C@@H]4C)ncnc32)c1` [Compound 150, tert-butyl (S)-4-(5-cyclopropyl-7-(5-methylpyridin-3-yl)-7H-pyrrolo[2,3-d]pyrimidin-4-yl)-3-methylpiperazine-1-carboxylate], the EC50 at TRPML1 lay within 100 to 500 nM; on TRPML3 it was 100 to 500 nM; at TRPML2, 500 to 2000 nM.

Consider `CC(C)(C)OC(=O)N1CCN(c2ncnc3c2c(-c2ccccn2)cn3-c2ccc(F)c(Cl)c2)CC1` [Compound 151, tert-butyl 4-(7-(3-chloro-4-fluorophenyl)-5-(pyridin-2-yl)-7H-pyrrolo[2,3-d]pyrimidin-4-yl)piperazine-1-carboxylate], for which the half-maximal effective concentration (EC50) at TRPML1, on TRPML3 and on TRPML2 was 100 to 500 nM throughout.

Regarding `CCOC(=O)N1CCN(c2ncnc3c2c(-c2ccccn2)cn3-c2ccc(F)c(Cl)c2)CC1` [Compound 152, ethyl 4-(7-(3-chloro-4-fluorophenyl)-5-(pyridin-2-yl)-7H-pyrrolo[2,3-d]pyrimidin-4-yl)piperazine-1-carboxylate], the EC50 on TRPML1 is 500 to 2000 nM; at TRPML3, 500 to 2000 nM; on TRPML2, above 2000 nM.

Turning to `C[C@H]1CN(C(=O)OC(C)(C)C)CCN1c1ncnc2c1c(-c1ccccn1)cn2-c1ccc(F)c(Cl)c1` [Compound 154, tert-butyl (S)-4-(7-(3-chloro-4-fluorophenyl)-5-(pyridin-2-yl)-7H-pyrrolo[2,3-d]pyrimidin-4-yl)-3-methylpiperazine-1-carboxylate], the EC50 at TRPML1, at TRPML3 and on TRPML2 was below 100 nM in each case.

With `CCOC(=O)N1CCN(c2ncnc3c2c(-c2ccccn2)cn3-c2ccc(F)c(Cl)c2)[C@@H](C)C1` [Compound 155, ethyl (S)-4-(7-(3-chloro-4-fluorophenyl)-5-(pyridin-2-yl)-7H-pyrrolo[2,3-d]pyrimidin-4-yl)-3-methylpiperazine-1-carboxylate], the EC50 fell in the range of 100 to 500 nM at TRPML1, 100 to 500 nM at TRPML3 and 500 to 2000 nM on TRPML2.

For `CC(C)(C)OC(=O)N1CCN(c2nccc3c2c(C2CC2)cn3-c2ccc(Cl)cc2)CC1` [Compound 156, tert-butyl 4-(1-(4-chlorophenyl)-3-cyclopropyl-1H-pyrrolo[3,2-c]pyridin-4-yl)piperazine-1-carboxylate], the EC50 was 100 to 500 nM at TRPML1, below 100 nM at TRPML3 and 100 to 500 nM on TRPML2.

For `C[C@@H]1CN(C(=O)OC(C)(C)C)CCN1c1ncnc2c1c(C1CCCC1)cn2-c1cccc(Cl)c1` [Compound 157, tert-butyl (R)-4-(7-(3-chlorophenyl)-5-cyclopentyl-7H-pyrrolo[2,3-d]pyrimidin-4-yl)-3-methylpiperazine-1-carboxylate], the EC50 at TRPML1 is 100 to 500 nM; at TRPML3, below 100 nM; on TRPML2 it was 100 to 500 nM.

In the case of `C[C@H]1CN(C(=O)OC(C)(C)C)CCN1c1ncnc2c1c(C1CCCC1)cn2-c1cccc(Cl)c1` [Compound 158, tert-Butyl (S)-4-(7-(3-chlorophenyl)-5-cyclopentyl-7H-pyrrolo[2,3-d]pyrimidin-4-yl)-3-methylpiperazine-1-carboxylate], the EC50 on TRPML1, on TRPML3 and on TRPML2 was below 100 nM throughout.

As for `Cc1ccc(Cl)cc1-n1cc(-c2ccccn2)c2c(N3CCN(C(=O)OC(C)(C)C)CC3C)ncnc21` (stereo not drawn) [Compound 159, tert-butyl 4-(7-(5-chloro-2-methylphenyl)-5-(pyridin-2-yl)-7H-pyrrolo[2,3-d]pyrimidin-4-yl)-3-methylpiperazine-1-carboxylate], the EC50 on TRPML1, on TRPML3 and at TRPML2 was 100 to 500 nM each time.

With `Cc1c(Cl)cccc1-n1cc(-c2ccccn2)c2c(N3CCN(C(=O)OC(C)(C)C)CC3C)ncnc21` (stereo not drawn) [Compound 160, tert-butyl 4-(7-(3-chloro-2-methylphenyl)-5-(pyridin-2-yl)-7H-pyrrolo[2,3-d]pyrimidin-4-yl)-3-methylpiperazine-1-carboxylate], the EC50 at TRPML1 was 100 to 500 nM; on TRPML3, below 100 nM; at TRPML2, 100 to 500 nM.

Turning to `Cc1nccnc1-c1cn(-c2cccc(Cl)c2)c2ncnc(N3CCN(C(=O)OC(C)(C)C)CC3C)c12` (stereo not drawn) [Compound 161, tert-butyl 4-(7-(3-chlorophenyl)-5-(3-methylpyrazin-2-yl)-7H-pyrrolo[2,3-d]pyrimidin-4-yl)-3-methylpiperazine-1-carboxylate], the values for the EC50 on TRPML1, on TRPML3 and at TRPML2 were 100 to 500 nM, 100 to 500 nM and 500 to 2000 nM, respectively.

As for `Cc1c(Cl)cccc1-n1cc(-c2cnccn2)c2c(N3CCN(C(=O)OC(C)(C)C)CC3C)ncnc21` (stereo not drawn) [Compound 162, tert-butyl 4-(7-(3-chloro-2-methylphenyl)-5-(pyrazin-2-yl)-7H-pyrrolo[2,3-d]pyrimidin-4-yl)-3-methylpiperazine-1-carboxylate], the EC50 at TRPML1 was 500 to 2000 nM; at TRPML3, 100 to 500 nM; at TRPML2, 500 to 2000 nM.

Turning to `Cc1ccc(Cl)cc1-n1cc(-c2cnccn2)c2c(N3CCN(C(=O)OC(C)(C)C)CC3C)ncnc21` (stereo not drawn) [Compound 163, tert-butyl 4-(7-(5-chloro-2-methylphenyl)-5-(pyrazin-2-yl)-7H-pyrrolo[2,3-d]pyrimidin-4-yl)-3-methylpiperazine-1-carboxylate], the EC50 on TRPML1 is 500 to 2000 nM; at TRPML3, 100 to 500 nM; on TRPML2 it was 500 to 2000 nM.

`CC1CN(C(=O)OC(C)(C)C)CCN1c1ncnc2c1c(C1CC1)cn2-c1cncc(Cl)c1` (stereo not drawn) [Compound 164, tert-butyl 4-(7-(5-chloropyridin-3-yl)-5-cyclopropyl-7H-pyrrolo[2,3-d]pyrimidin-4-yl)-3-methylpiperazine-1-carboxylate]: the figures for the EC50 on TRPML1, at TRPML3 and at TRPML2 were below 100 nM, below 100 nM and 100 to 500 nM, respectively.

Turning to `Cc1cncc(-n2cc(C3CC3)c3c(N4C[C@@H](C)N(C(=O)OC(C)(C)C)C[C@@H]4C)ncnc32)c1` [Compound 165, tert-butyl (2R,5S)-4-(5-cyclopropyl-7-(5-methylpyridin-3-yl)-7H-pyrrolo[2,3-d]pyrimidin-4-yl)-2,5-dimethylpiperazine-1-carboxylate], the figures for the EC50 at TRPML1, on TRPML3 and at TRPML2 were 100 to 500 nM, 100 to 500 nM and 500 to 2000 nM, respectively.

With `CCc1cncc(-n2cc(C3CC3)c3c(N4CCN(C(=O)OC(C)(C)C)CC4)ncnc32)c1` [Compound 166, tert-butyl 4-(5-cyclopropyl-7-(5-ethylpyridin-3-yl)-7H-pyrrolo[2,3-d]pyrimidin-4-yl)piperazine-1-carboxylate], the EC50 at TRPML1 is 100 to 500 nM; at TRPML3 it was 100 to 500 nM; at TRPML2, 500 to 2000 nM.

In the case of `C[C@@H]1CN(c2ncnc3c2c(C2CC2)cn3-c2cncc(C(F)(F)F)c2)[C@@H](C)CN1C(=O)OC(C)(C)C` [Compound 167, tert-butyl (2R,5S)-4-(5-cyclopropyl-7-(5-(trifluoromethyl)pyridin-3-yl)-7H-pyrrolo[2,3-d]pyrimidin-4-yl)-2,5-dimethylpiperazine-1-carboxylate], the concentration giving a half-maximal response (EC50) is 100 to 500 nM on TRPML1, below 100 nM at TRPML3 and 500 to 2000 nM at TRPML2.

These data come from patent US20250136606A1, “MODULATORS OF TRPML, THEIR COMPOSITIONS AND METHODS OF USE” (Caraway Therapeutics, Inc., priority 2021, published 2025).
